Laboratory results: BindingDB's records for doi:10.7270/Q2251GJ9 (The Scripps Research Institute Molecular Screening Center, 2007)
Where a name gives a salt, the structure may show the parent alone.

Target: Sphingosine 1-phosphate receptor 1 (Homo sapiens, UniProt P21453)
Assay: S1P1 receptor agonists, dose response, cell-based, agonist mode, 60K MLSMR set (AID 468)
Conditions: not given

Chain of Sphingosine 1-phosphate receptor 1 (P21453 whole entry): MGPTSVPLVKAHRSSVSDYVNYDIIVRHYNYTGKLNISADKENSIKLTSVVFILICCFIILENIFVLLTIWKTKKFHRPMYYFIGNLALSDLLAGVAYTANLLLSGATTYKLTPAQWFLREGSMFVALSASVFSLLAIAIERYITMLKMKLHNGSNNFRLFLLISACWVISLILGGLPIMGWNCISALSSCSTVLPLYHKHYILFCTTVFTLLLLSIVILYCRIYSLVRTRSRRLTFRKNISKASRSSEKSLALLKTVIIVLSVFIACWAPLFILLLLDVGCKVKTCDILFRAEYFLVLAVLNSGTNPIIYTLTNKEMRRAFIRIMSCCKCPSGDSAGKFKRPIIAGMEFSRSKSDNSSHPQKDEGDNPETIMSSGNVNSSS

Point of comparison: `OC1(c2cccc(C(F)(F)F)c2)CCN(c2ncnc3c2[nH]c2ccc(F)cc23)CC1` [1-(8-fluoranyl-5H-pyrimido[5,4-b]indol-4-yl)-4-[3-(trifluoromethyl)phenyl]piperidin-4-ol], EC50 3.91 µM. Against it:
- c1ccc2c(c1)oc1c(N3CCN(Cc4ccc5c(c4)OCO5)CC3)ncnc12 — 1.6-fold higher, 6.14 µM
- COC(=O)C1=CN(CCCN2CCCC2=O)C=C(C(=O)OC)C1c1ccccc1C(F)(F)F — higher, > 95 µM
- CCC(NC(=O)Nc1nnc(C(F)(F)F)s1)(C(F)(F)F)C(F)(F)F — higher, > 95 µM
- Cn1ncnc2c(=O)n(C)c(=O)nc1-2 — 2.8-fold lower, 1.4 µM
- Oc1ccc(-c2nc(-c3ccc(O)c(O)c3)cs2)cc1 — 3.1-fold higher, 12 µM
- CCC1CCCCN1C(=O)CSc1nnc(-c2c[nH]c3ccccc23)o1 (centres undefined) — 1.5-fold higher, 5.9 µM
- O=C(CSc1nnc(-c2c[nH]c3ccccc23)o1)N1c2ccccc2CCc2ccccc21 — 1.8-fold higher, 7.07 µM
- O=C(Nc1ccc(N2CCCCC2)c(Cl)c1)c1nnc[nH]1 — 4.6-fold lower, 0.857 µM
- COc1ccc2[nH]c(=O)c3c(c2c1)OC(C)(C)C=C3 — within 1.5-fold, 4.51 µM
- O=C(CSc1nnc(-c2c[nH]c3ccccc23)o1)N(Cc1ccccc1)c1ccc(F)cc1 — 3.8-fold lower, 1.02 µM
- Oc1c(Cl)cc(Cl)cc1Sc1cc(Cl)cc(Cl)c1O — 3.8-fold lower, 1.02 µM
- Cc1ccc2[nH]c3c(N4CCN(Cc5ccc6c(c5)OCO6)CC4)ncnc3c2c1 — higher, > 30 µM
- Fc1ccc2[nH]c3c(N4CCN(c5ccccc5)CC4)ncnc3c2c1 — not separable, > 3 µM
- CC(C)OCCCNc1ncnc2c1[nH]c1ccc(F)cc12 — within 1.5-fold, 4.41 µM
- c1ccc(CSc2nnc(-c3c[nH]c4ccccc34)o2)cc1 — 2-fold lower, 1.95 µM
- O=C(Cc1c[nH]c2ccccc12)N1CCc2ccccc21 — 2.4-fold higher, 9.43 µM
- Cc1cc(C(=O)CSc2nnc(-c3ccccc3)n2-c2ccccc2)c(C)n1-c1nnc[nH]1 — within 1.5-fold, 5.27 µM
- CN1/C(=C/C(=O)c2nc(S(C)(=O)=O)ncc2Cl)C(C)(C)c2ccccc21 — 2.2-fold higher, 8.79 µM
- CCCCOC(=O)c1[nH]c2c(c1C)C(=O)CC(c1cc(OC)c(OC)c(OC)c1)C2 (centres undefined) — within 1.5-fold, 4.19 µM
- CCc1ccc(N(CC)c2ncnc3nc[nH]c23)cc1 — 1.5-fold higher, 6.03 µM
- CCOC(=O)/C=C/S(=O)(=O)c1ccc(NC(C)=O)cc1 — not separable, > 3 µM
- Cc1ccc(-c2n[nH]c(=S)n2C)cc1 — higher, > 95 µM
- Clc1ccc(NCn2cncn2)nc1 — higher, > 95 µM
- CCc1oc2ccccc2c1C(=O)c1cc(Br)c(O)c(Br)c1 — 1.5-fold higher, 5.94 µM
- CC1=NC(=O)NC(c2ccc(Cl)cc2)C1C(=O)OCc1ccc2c(c1)OCO2 (centres undefined) [1,3-benzodioxol-5-ylmethyl 4-(4-chlorophenyl)-6-methyl-2-oxidanylidene-3,4-dihydro-1H-pyrimidine-5-carboxylate] — not separable, > 0.03 µM
- CC1=NC(=O)NC(c2ccc(F)cc2)C1C(=O)OCc1ccc2c(c1)OCO2 (centres undefined) [1,3-benzodioxol-5-ylmethyl 4-(4-fluorophenyl)-6-methyl-2-oxidanylidene-3,4-dihydro-1H-pyrimidine-5-carboxylate] — 8.9-fold lower, 0.437 µM
- CC1=NC(=O)NC(c2ccccc2)C1C(=O)OCc1ccc2c(c1)OCO2 (centres undefined) [1,3-benzodioxol-5-ylmethyl 6-methyl-2-oxidanylidene-4-phenyl-3,4-dihydro-1H-pyrimidine-5-carboxylate] — 2.1-fold lower, 1.84 µM
- O=C(Nc1ccc(OC(F)F)c(Cl)c1)Nc1ccc2c(c1)OCO2 [1-(1,3-benzodioxol-5-yl)-3-[3-chloro-4-(difluoromethoxy)phenyl]urea] — 2-fold higher, 7.77 µM
- Cc1cccc(-c2nc(CSCC(=O)N3CCN(Cc4ccc5c(c4)OCO5)CC3)c(C)o2)c1 [1-(1,3-benzodioxol-5-ylmethyl)-4-[({[5-methyl-2-(3-methylphenyl)-1,3-oxazol-4-yl]methyl}thio)acetyl]piperazine] — within 1.5-fold, 5.16 µM
- Cc1nn(-c2nc3ccccc3s2)c(N)c1-c1ccccc1 [1-(1,3-benzothiazol-2-yl)-3-methyl-4-phenyl-1H-pyrazol-5-amine] — 9.4-fold lower, 0.415 µM
- C=CCn1c(C)cc(C(=O)CSc2nc3ccccc3o2)c1C [1-(1-allyl-2,5-dimethyl-pyrrol-3-yl)-2-(1,3-benzoxazol-2-ylthio)ethanone] — 2.4-fold higher, 9.52 µM
- O=C(CCN1CCc2ccccc2CC1)c1ccc2c(c1)OCCO2 [1-(2,3-dihydro-1,4-benzodioxin-6-yl)-3-(1,2,4,5-tetrahydro-3-benzazepin-3-yl)-1-propanone;hydrochloride] — 2.7-fold higher, 10.5 µM
- COc1ccc(-n2c(O)cc(Sc3nnc[nH]3)c2O)c(OC)c1 [1-(2,4-dimethoxyphenyl)-3-(1H-1,2,4-triazol-5-ylthio)pyrrolidine-2,5-dione] — 4.3-fold higher, 16.7 µM
- CCOc1ccc(S(=O)(=O)N2CCN(c3ccc(C)cc3C)CC2)cc1 [1-(2,4-dimethylphenyl)-4-(4-ethoxyphenyl)sulfonyl-piperazine] — higher, > 10 µM
- O=S(=O)(c1cccs1)N1CCN(CC(O)COc2cc(Cl)ccc2Cl)CC1 (centres undefined) [1-(2,5-dichlorophenoxy)-3-(4-thiophen-2-ylsulfonyl-1-piperazinyl)-2-propanol] — within 1.5-fold, 4.2 µM
- Cc1cc(C(=O)CSc2nnc(-c3cccs3)o2)c(C)n1-c1ccccc1 [1-(2,5-dimethyl-1-phenyl-3-pyrrolyl)-2-[(5-thiophen-2-yl-1,3,4-oxadiazol-2-yl)thio]ethanone] — within 1.5-fold, 4.66 µM
- Cc1cc(C(=O)CSc2nnnn2-c2ccc(O)cc2)c(C)n1Cc1ccc2c(c1)OCO2 [1-(2,5-dimethyl-1-piperonyl-pyrrol-3-yl)-2-[[1-(4-hydroxyphenyl)tetrazol-5-yl]thio]ethanone] — 1.5-fold higher, 5.91 µM
- COc1ccccc1N=C(N)Nc1nc(CSc2ccc(C)cc2)cc(=O)[nH]1 [1-(2-methoxyphenyl)-2-[6-[[(4-methylphenyl)thio]methyl]-4-oxo-1H-pyrimidin-2-yl]guanidine] — 1.9-fold higher, 7.29 µM
- Cc1occc1C(=O)N1CCN(c2ccc(Cl)c(Cl)c2)CC1 [1-(3,4-dichlorophenyl)-4-(2-methyl-3-furoyl)piperazine] — within 1.5-fold, 4.47 µM
- COc1ccc(S(=O)(=O)N2CCN(c3ccc(C)cc3C)CC2)cc1OC [1-(3,4-dimethoxyphenyl)sulfonyl-4-(2,4-dimethylphenyl)piperazine] — 1.7-fold higher, 6.58 µM
- COc1cc(-c2noc(C3CCCN(S(=O)(=O)c4cccc(Cl)c4)C3)n2)cc(OC)c1OC (centres undefined) [1-(3-Chloro-benzenesulfonyl)-3-[3-(3,4,5-trimethoxy-phenyl)-[1,2,4]oxadiazol-5-yl]-piperidine] — within 1.5-fold, 3.83 µM
- COc1ccc(C(=O)C(CN2CCOCC2)c2ccccc2)cc1F (centres undefined) [1-(3-Fluoro-4-methoxy-phenyl)-3-morpholin-4-yl-2-phenyl-propan-1-one] — 5.8-fold higher, 22.5 µM
- COc1cccc(NC(=O)Nc2nnc(N3CCCCC3C)s2)c1 (centres undefined) [1-(3-methoxyphenyl)-3-[5-(2-methyl-1-piperidinyl)-1,3,4-thiadiazol-2-yl]urea] — 2.2-fold higher, 8.72 µM
- CCCS(=O)(=O)c1nnnn1-c1cccc(OC)c1 [1-(3-methoxyphenyl)-5-(propylsulfonyl)-1H-tetrazole] — within 1.5-fold, 2.82 µM
- CCOc1ccc(S(=O)(=O)n2cnc3cc(C)c(C)cc32)cc1 [1-(4-Ethoxy-benzenesulfonyl)-5,6-dimethyl-1H-benzoimidazole] — 1.7-fold higher, 6.73 µM
- N#Cc1ccc(NC(=O)Nc2ccc(Cl)cc2)cc1 [1-(4-chlorophenyl)-3-(4-cyanophenyl)urea] — 2.4-fold higher, 9.38 µM
- Cc1cccc(NC(=O)Nc2ccc(C#N)cc2)n1 [1-(4-cyanophenyl)-3-(6-methyl-2-pyridinyl)urea] — higher, > 30 µM
- O=C(c1ccc(F)cc1)C(CN1CCOCC1)c1ccccc1 (centres undefined) [1-(4-fluorophenyl)-3-(4-morpholinyl)-2-phenyl-1-propanone;hydrochloride] — 4.6-fold higher, 17.9 µM
- COc1cc(CSc2nnnn2-c2ccc(C)cc2)cc(OC)c1OC [1-(4-methylphenyl)-5-[(3,4,5-trimethoxybenzyl)thio]-1H-tetrazole] — 1.7-fold lower, 2.26 µM
- CCOC(=O)C1CCN(c2ncnc3c2oc2ccc(Cl)cc23)CC1 [1-(8-chloro-4-benzofuro[3,2-d]pyrimidinyl)-4-piperidinecarboxylic acid ethyl ester] — higher, > 95 µM

Same assay, conditions: inactive by the depositor's call

Point of comparison: `CN1c2ccccc2C(C)(C)C12C=Cc1cc(O)ccc1O2` (centres undefined) [1',3',3'-trimethyl-6-spiro[1-benzopyran-2,2'-indole]ol], EC50 13.1 µM. Against it:
- CC1=CC(C)(C)Nc2ccc(OC(=O)c3ccco3)cc21 — within 1.5-fold, 13.3 µM
- O=S1(=O)C=C(Sc2nnc(-c3ccccc3)o2)c2ccccc21 — 1.6-fold higher, 20.6 µM
- Cc1n[nH]c(C)c1N1C(=O)c2cccc3c(N4CCCCCC4)ccc(c23)C1=O — within 1.5-fold, 13.8 µM
- CC(C)C(c1nnnn1Cc1ccccc1)N(Cc1ccco1)Cc1cccs1 (centres undefined) [1-(1-benzyltetrazol-5-yl)-N-(furan-2-ylmethyl)-2-methyl-N-(thiophen-2-ylmethyl)propan-1-amine] — 3.9-fold higher, 51.2 µM
- Cc1ccc(-n2ncc3c(N4CCCC(C)C4)ncnc32)c(C)c1 (centres undefined) [1-(2,4-dimethylphenyl)-4-(3-methylpiperidin-1-yl)-1H-pyrazolo[3,4-d]pyrimidine] — within 1.5-fold, 11 µM
- Cc1ccc(C)c(-n2nnnc2Sc2nnnn2-c2ccccc2)c1 [1-(2,5-dimethylphenyl)-5-(1-phenyltetrazol-5-yl)sulfanyltetrazole] — within 1.5-fold, 12.8 µM
- CC1CCCC(C)N1C(=O)CN1CCN(c2nc(-c3ccc(F)cc3)cs2)CC1 (centres undefined) [1-(2,6-Dimethyl-piperidin-1-yl)-2-{4-[4-(4-fluoro-phenyl)-thiazol-2-yl]-piperazin-1-yl}-ethanone] — within 1.5-fold, 12.7 µM
- CCN(CC)C(=O)C1CCN(S(=O)(=O)c2ccc3oc4ccccc4c3c2)CC1 [1-(2-dibenzofuranylsulfonyl)-N,N-diethyl-4-piperidinecarboxamide] — 2.4-fold higher, 31.7 µM
- CC(C)Cn1c(=O)c(C(=O)Nc2ccccc2S(N)(=O)=O)c(O)c2ccccc21 [1-(2-methylpropyl)-2-oxidanyl-4-oxidanylidene-N-(2-sulfamoylphenyl)quinoline-3-carboxamide] — within 1.5-fold, 13.4 µM
- O=C1CC(N2CCN(C/C=C/c3ccccc3)CC2)C(=O)N1CCc1ccccc1 (centres undefined) [1-(2-phenylethyl)-3-[4-[(E)-3-phenylprop-2-enyl]-1-piperazinyl]pyrrolidine-2,5-dione] — 1.5-fold higher, 20 µM
- CCOC(=O)C1CCN(c2ncnc3c2oc2ccccc23)CC1 [1-(4-benzofuro[3,2-d]pyrimidinyl)-4-piperidinecarboxylic acid ethyl ester] — within 1.5-fold, 12 µM
- CCCCOc1ccc(S(=O)(=O)n2c(C)nc3ccccc32)cc1 [1-(4-butoxyphenyl)sulfonyl-2-methyl-benzimidazole] — 1.8-fold higher, 23.2 µM
